Measured values reported in US20040192905A1, “Polymerizable monomers and process of preparation thereof” (priority 2003, published 2004).

What was measured:
[1] = biological target: T1, lysozyme (Gallus gallus, UniProt P00698); test: Estimation of relative inhibition of lysozyme (Micrococcus lysodeikticus substrate, absorbance at 450 nm); assay type: biochemical; conditions: for 1max: ligand concentration at Imax; for Imax: maximum relative inhibition of lysozyme; for IC50: phosphate buffer pH 6.2, 20 C, Micrococcus lysodeikticus substrate, read-out: I50
Procedure: This example describes the estimation of inhibition of lysozyme by monomers Micrococcus lysodeikticus is a substrate for the enzyme lysozyme. Relative binding of monomers and monomers linked to NAG through the spacer arm was estimated by using a procedure reported by Neuberger and Wilson (1967).
1 5% w/v stock solutions of monomeric ligands was prepared in […] phosphate buffer pH 6.2 containing 0.01 54 m sodium chloride and 0.008 M sodium azide. One milliliter of stock solution containing different ligand concentration was mixed with 1.6 ml of 78 Jig/ml of Micrococcus lysodeikticus in a 3-ml capacity glass cuvette. The mixture was incubated for 5 minutes at 20 0 C. To this mixture 0.1 ml of lysozyme (27 μg/ml) was added and mixed thoroughly. The relative absorbance at 450 nm (Δ450) was recorded for 30 seconds. A blank reading without the ligand was noted and the change in the absorbance per second was calculated. Then relative inhibition was calculated

[2] = biological target: T1, lysozyme; test: Estimation of binding constant (Kb) by fluorescence spectrophotometric method; conditions: relative to NAG
Procedure: Estimation of binding constant (Kb) of monomers containing NAG by fluorescence spectrophotometric method and the enhancement resulting from conjugation with monomers and monomer containing spacer.
Fluorescence spectra of lysozyme were recorded on a Perkin Elmer LS-50 B luminescence spectrophotometer. Excitation frequency was 285 nm, Solutions of lysozyme and N-Acetyl Glucosamine were prepared in 0.066 M phosphate buffer pH 6.2, containing 0.0154 M sodium chloride and 0.008 M sodium azide. 0 1 milliliter of lysozyme 80 μg/ml was mixed with solution containing different ligand concentration in a 2 ml capacity 10 mm square quartz cells maintained at 18 0 C.
Phosphate buffer was added to make the volume to 2 ml. The fluorescence intensities of the solutions were measured, relative to the solutions containing enzymes and buffer mixtures of the identical concentrations reference. […]

T1 sequence (P00698 19-147): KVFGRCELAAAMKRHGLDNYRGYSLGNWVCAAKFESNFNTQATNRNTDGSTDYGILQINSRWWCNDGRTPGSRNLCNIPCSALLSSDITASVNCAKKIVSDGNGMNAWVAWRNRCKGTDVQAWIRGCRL

Row | Compound | 1max [1] | Imax [1] | IC50 [1] | increase in binding constant compared to N-Acetyl Glucosamine [2]
1 | Acryloyl 6-Amino Caproic Acid N-Acetyl Glucosamine [Ac 6ACA.NAG] | 0.036 mM | 52.5 | 0.035 mM | –
2 | C=CC(=O)OC[C@H]1OC(O)[C@H](NC(C)=O)[C@@H](O)[C@@H]1O (stereo partly shown) [Ac. NAG, Acryloyl N-Acetyl Glacosamine] | 14.81 mM | 50.00 | 14.8 mM | 74 times
3 | CC(=O)N[C@H]1C(O)O[C@H](CO)[C@@H](O)[C@@H]1O (stereo partly shown) [NAG, N-Acetyl Glucosamine, reference compound] | 92.5 mM | 55.29 | 74 mM | –
